Results reported in PubChem BioAssay (NCI).
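Exposure lasted 48 hours, with cells grown in 96-well plates and compounds tested at five concentrations. GI50 = concentration required for 50% inhibition of growth. TGI: total growth inhibition.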

Experiments:
Test in all cases: NCI anticancer screen, dose series, 48 h
MDA-MB-231 breast = system: MDA-MB-231 breast
SF-295 CNS = system: SF-295 CNS
UO-31 renal = system: UO-31 renal
UACC-257 melanoma = system: UACC-257 melanoma
COLO 205 colon = system: COLO 205 colon
OVCAR-3 ovarian = system: OVCAR-3 ovarian
SF-268 CNS = system: SF-268 CNS
SW-620 colon = system: SW-620 colon
CCRF-CEM leukemia = system: CCRF-CEM leukemia
IGROV1 ovarian = system: IGROV1 ovarian
RPMI-8226 leukemia = system: RPMI-8226 leukemia
SF-539 CNS = system: SF-539 CNS
NCI-H460 lung = system: NCI-H460 lung
OVCAR-5 ovarian = system: OVCAR-5 ovarian
SK-MEL-28 melanoma = system: SK-MEL-28 melanoma
DU-145 prostate = system: DU-145 prostate
EKVX NSCLC = system: EKVX NSCLC
HL-60(TB) leukemia = system: HL-60(TB) leukemia
SK-MEL-5 melanoma = system: SK-MEL-5 melanoma
NCI-H23 lung = system: NCI-H23 lung
RXF 393 renal = system: RXF 393 renal
LOX IMVI melanoma = system: LOX IMVI melanoma
T-47D breast = system: T-47D breast
MOLT-4 leukemia = system: MOLT-4 leukemia
786-0 renal = system: 786-0 renal
HCT-15 colon = system: HCT-15 colon
KM12 colon = system: KM12 colon
MDA-MB-435 = system: MDA-MB-435
PC-3 prostate = system: PC-3 prostate

Cc1cc(S(=O)(=O)/N=C(/N)Nc2ccccc2O)c(SCc2ccccc2)cc1Cl
GI50 (MDA-MB-231 breast): 14.8 µM
TGI (MDA-MB-231 breast): 32.2 µM
GI50 (SF-295 CNS): 19 µM
TGI (SF-295 CNS): 39.5 µM
GI50 (UO-31 renal): 6.99 µM
TGI (UO-31 renal): 25.7 µM
GI50 (UACC-257 melanoma): 14.6 µM
TGI (UACC-257 melanoma): 30.4 µM
GI50 (COLO 205 colon): 23 µM
TGI (COLO 205 colon): 47.8 µM
GI50 (OVCAR-3 ovarian): 14.5 µM
TGI (OVCAR-3 ovarian): 34.1 µM
GI50 (SF-268 CNS): 13.4 µM
TGI (SF-268 CNS): 45.4 µM
GI50 (SW-620 colon): 22.1 µM
TGI (SW-620 colon): 56.4 µM
GI50 (CCRF-CEM leukemia): 5.95 µM
TGI (CCRF-CEM leukemia): 39.8 µM
GI50 (IGROV1 ovarian): 11 µM
TGI (IGROV1 ovarian): 26.9 µM
GI50 (RPMI-8226 leukemia): 11.4 µM
TGI (RPMI-8226 leukemia): 52.3 µM
GI50 (SF-539 CNS): 10.4 µM
TGI (SF-539 CNS): 24.7 µM
GI50 (NCI-H460 lung): 7.64 µM
TGI (NCI-H460 lung): 50.7 µM
GI50 (OVCAR-5 ovarian): 19.8 µM
TGI (OVCAR-5 ovarian): 35.9 µM
GI50 (SK-MEL-28 melanoma): 18.6 µM
TGI (SK-MEL-28 melanoma): 43.9 µM
GI50 (DU-145 prostate): 23.9 µM
TGI (DU-145 prostate): 79.5 µM
GI50 (EKVX NSCLC): 11 µM
TGI (EKVX NSCLC): 37.8 µM
GI50 (HL-60(TB) leukemia): 4.22 µM
TGI (HL-60(TB) leukemia): > 100 µM
GI50 (SK-MEL-5 melanoma): 14.6 µM
TGI (SK-MEL-5 melanoma): 30.5 µM
GI50 (NCI-H23 lung): 17.1 µM
TGI (NCI-H23 lung): 34.4 µM
GI50 (RXF 393 renal): 12.1 µM
TGI (RXF 393 renal): 27.9 µM
GI50 (LOX IMVI melanoma): 14.6 µM
TGI (LOX IMVI melanoma): 33.5 µM
GI50 (T-47D breast): 12.2 µM
TGI (T-47D breast): 31.4 µM
GI50 (MOLT-4 leukemia): 3.01 µM
TGI (MOLT-4 leukemia): 42.3 µM
GI50 (786-0 renal): 18.6 µM
TGI (786-0 renal): 35 µM
GI50 (HCT-15 colon): 12.1 µM
TGI (HCT-15 colon): 28 µM
GI50 (KM12 colon): 12.6 µM
TGI (KM12 colon): 32.5 µM
GI50 (MDA-MB-435): 13.5 µM
TGI (MDA-MB-435): 32 µM
GI50 (PC-3 prostate): 13.9 µM
